Test results reported in article PMC3058569 (Chemical biology & drug design, 2010).
Converted amounts (≈) assume the structure as drawn. “And” between values parts separate entries of the source, which are not always exact repeats. Identical values can stand only once. Blank lines part the entries; values can stand above or below the molecule they belong to.

Tests used:
[1] = tested on: BSL-1 and 2 model organisms (fungi, bacteria, P. falciparum, L. donovani); assay: Overall in vitro antimicrobial and antiprotozoal screen; assay type: cell-based; details: for Activity against all other test organisms: fungi and bacteria other than S. aureus and MRS; for Antimicrobial or antiprotozoal activity (overall): all test organisms
[2] = tested on: Staphylococcus aureus; assay: Antibacterial susceptibility testing, modified CLSI method; assay type: cell-based; details: for IC50 Antibacterial S. aureus: 50% inhibition of bacterial growth; for IC50 against S. aureus and methicillin resistant S. aureus: range over both compounds and both strains (abstract)
[3] = tested on: Mycobacterium intracellulare; assay: Susceptibility by modified Alamar Blue procedure; assay type: cell-based
[4] = tested on: L. donovani promastigotes; assay: Antileishmanial activity, Alamar Blue assay; assay type: cell-based, Leishmania donovani; details: for Antileishmanial L. donovani IC50 / Antileishmanial L. donovani IC90: promastigotes; for Antileishmanial L. donovani IC90: 90% inhibition of leishmanial growth; for IC50 / IC90: Leishmania donovani; for IC50: read-out: Antileishmanial L. donovani IC50; for IC90: read-out: Antileishmanial L. donovani IC90
[5] = tested on: methicillin resistant S. aureus (MRS); assay: Antibacterial susceptibility testing, modified CLSI method; assay type: cell-based, Staphylococcus aureus; details: for IC50 Antibacterial MRS: 50% inhibition of bacterial growth
[6] = tested on: P. falciparum chloroquine resistant (W2) clone; assay: microbe, parasite or virus in culture; assay type: cell-based, Plasmodium falciparum; details: for IC50: Plasmodium falciparum, W2, read-out: Antimalarial P. falciparum W2 Clone IC50
[7] = tested on: P. falciparum chloroquine sensitive (D6) clone; assay: In vitro antimalarial activity, plasmodial LDH activity; assay type: cell-based, Plasmodium falciparum; details: for IC50: Plasmodium falciparum, D6, read-out: Antimalarial P. falciparum D6 Clone IC50
[8] = tested on: C. glabrata; assay: Antifungal susceptibility testing, modified CLSI method; assay type: cell-based, Candida glabrata; details: 50% inhibition of fungal growth
[9] = tested on: Cryptococcus neoformans; assay: as above; assay type: cell-based
[10] = tested on: A. fumigatus; assay: as above; assay type: cell-based; details: Aspergillus fumigatus
[11] = lowest concentration that allows no detectable growth

Compound: ON=Cc1cccc[n+]1Cc1csc2ccccc12.[Cl-] [Compound 24, 1-(Benzothiophene-3-yl)-methyl-2-hydroxyiminomethylpyridinium chloride]
- Activity against all other test organisms [1]: inactive
- IC50 Antibacterial S. aureus [2]: 12.2 µg/mL and 12.23 µg/mL
- MIC Antibacterial S. aureus [2, 11]: 20 µg/mL
- IC50 against S. aureus and methicillin resistant S. aureus [2]: 12.2 to 17.7 µg/mL
- IC50 Antibacterial M. intracellulare ([3]; 50% inhibition of bacterial growth): >20 µg/mL
- Antileishmanial L. donovani IC50 [4]: 18 µg/mL
- Antileishmanial L. donovani IC90 [4]: 40 µg/mL
- IC50 Antibacterial MRS [5]: 17.7 µg/mL and 17.72 µg/mL
- MIC Antibacterial MRS [5, 11]: 20 µg/mL

Compound: ON=Cc1cc[n+](CCC[n+]2ccc(/C=N/O)cc2)cc1 [Compound 42, trimedoxime, reference compound]
- Antimicrobial or antiprotozoal activity (overall) [1]: completely devoid of any antimicrobial or antiprotozoal activities

Compound: C[C@@H]1CC[C@H]2[C@@H](C)C(=O)O[C@@H]3O[C@@]4(C)CC[C@@H]1[C@]32OO4 [Artemisinin]
- IC50 [6]: 0.0065 µg/mL (≈ 0.023 µM)
- IC50 [7]: 0.01 µg/mL (≈ 0.0354 µM)

Compound: O/N=C/c1cc[n+](COC[n+]2ccc(/C=N/O)cc2)cc1 [Compound 37, obidoxime, reference compound]
- Antimicrobial or antiprotozoal activity (overall) [1]: completely devoid of any antimicrobial or antiprotozoal activities

- IC50 Antifungal C. glabrata [8]: >20 µg/mL
- IC50 Antibacterial S. aureus [2]: 15.3 µg/mL and 15.27 µg/mL
- IC50 against S. aureus and methicillin resistant S. aureus [2]: 12.2 to 17.7 µg/mL
- Antileishmanial L. donovani IC50 [4]: 19 µg/mL
- Antileishmanial L. donovani IC90 [4]: 40 µg/mL
Compound: ON=Cc1cccc[n+]1Cc1ccc(Br)s1.[Cl-] [Compound 21]
- Activity against all other test organisms [1]: inactive
- IC50 Antibacterial MRS [5]: 14.2 µg/mL and 14.19 µg/mL

Compound: CCN(CC)CCCC(C)Nc1ccnc2cc(Cl)ccc12 (stereo not shown) [Chloroquine]
- IC50 [6]: 0.12 µg/mL (≈ 0.375 µM)
- IC50 [7]: 0.015 µg/mL (≈ 0.0469 µM)

- IC50 [4]: 1.2 µg/mL (≈ 3.52 µM)
- IC90 [4]: 5 µg/mL (≈ 14.7 µM)
Compound: N=C(N)c1ccc(OCCCCCOc2ccc(C(=N)N)cc2)cc1 [Pentamidine, reference compound]

- MIC ([3]; Mycobacterium intracellulare, read-out: MIC Antibacterial M. intracellulare): 0.5 µg/mL (≈ 1.51 µM)
Compound: O=C(O)c1cn(C2CC2)c2cc(N3CCNCC3)c(F)cc2c1=O [Ciprofloxacin]
- IC50 ([3]; Mycobacterium intracellulare, read-out: IC50 Antibacterial M. intracellulare): 0.39 µg/mL (≈ 1.18 µM)

- IC50 Antifungal C. neoformans ([9]; 50% inhibition of fungal growth): 1.28 µg/mL (≈ 1.39 µM)
- MIC ([9]; Cryptococcus neoformans, read-out: MIC Antifungal C. neoformans): 2.5 µg/mL (≈ 2.71 µM)
- IC50 ([10]; read-out: IC50 Antifungal A. fumigatus): 0.98 µg/mL (≈ 1.06 µM)
- MIC ([10]; read-out: MIC Antifungal A. fumigatus): 2.5 µg/mL (≈ 2.71 µM)
- IC50 [4]: 0.2 µg/mL (≈ 0.216 µM)
- IC90 [4]: 0.4 µg/mL (≈ 0.433 µM)
Compound: C[C@@H]1[C@H](O)[C@@H](C)/C=C/C=C/C=C/C=C/C=C/C=C/C=C/[C@H](O[C@@H]2O[C@H](C)[C@@H](O)[C@H](N)[C@@H]2O)C[C@@H]2O[C@](O)(C[C@@H](O)C[C@@H](O)[C@H](O)CC[C@@H](O)C[C@@H](O)CC(=O)O[C@H]1C)C[C@H](O)[C@H]2C(=O)O [Amphotericin B]

Compound: NC(=O)c1cc[n+](CCCBr)cc1.[Br-] [Compound 17]
- Antimalarial P. falciparum W2 Clone IC50 ([6]; chloroquine resistant clone): 4.0 µg/mL
- Antimalarial P. falciparum D6 Clone IC50 ([7]; chloroquine sensitive clone): 3.7 µg/mL
